Results published in publication PMC11758221, “Late-Stage Minimal Labeling of Peptides and Proteins for Real-Time Imaging of Cellular Trafficking” (ACS Central Science, 2024).
Read-outs that look alike come from different tables or passages of the source. Where a SMILES comes first, the peptide text is derived from it. Where no end group is shown, it is not given here. The star is where a group is joined. X1 = O=[N+]([O-])c1ccc(*)c2nsnc12

What was measured:
[1] = Chemical stability in PBS, cell culture media and reducing environments; assay type: physicochemical
Experimental: Next, we investigated the optical properties and stability of the S-aryl linkage in the two labeled peptides P1-SNBD and cP1-SNBD. We examined their chemical stability after incubation in phosphate buffered saline (PBS, pH 7.0) at 25 °C and cell culture media at 37 °C (Figures S6 and S7) as well as different biologically relevant reducing environments (Figure S8). […] Finally, we measured the emission spectra of P1-SNBD and cP1-SNBD and confirmed that the two peptides retained the fluorogenic behavior of benzodiazoles (Figure S9).

[2] = Stability of labeled peptide with reducing bioanalytes (HPLC); assay type: physicochemical; details: peptide 250 µM in PBS pH 7.8, 37 °C
Experimental: 5 mM gl u tath i on e >95% >95% >95%
Figure S8. Stability analysis of P1-SNBD under physiological conditions. […]

Human red blood cells = assay: Haemolysis assay; assay type: cell-based
Experimental: H aemolysis assays. […] H u man red bl ood cel l s w ere separated f rom seru m an d w ash ed i n ph osph ate- bu ff ered sal i n e (P B S , pH 7.4) with 4–5 ti mes cen tri f u gati on at 4000 rpm f o r 1 mi n . E ryth rocytes w ere th en resu spended in PBS as a 0.5% (v/v) sol u ti on , an d co- i n cu bated w i th seri al l y di l u ted pepti des i n a 96-w el l pl ate f o r 1 h at 37 °C . […] PBS and […]
0 .0 1 % (v /v ) Tri to n X-100 w ere u sed as con trol s to establ i sh 0% an d 100% of h aemol ysis, respecti vel y. […]

[3] = tested on: RAW264.7 macrophages expressing the chemokine receptor CCR2; assay: Confocal imaging of receptor-mediated endocytosis of the labeled chemokine; assay type: cell-based, mouse; details: RAW264.7 cells, 4 μM, 1 h
From the text: Figure 6 Site-selective mCCL2 chemokine labeling and real-time imaging of receptor-mediated endocytosis in live macrophages. A) Schematic representation of the chemokine mCCL2 (PDB: 1DOK) depicting the incorporation of SNBD at the C-terminal end. B) Coomassie-stained and in-gel fluorescence scanning of unlabeled mCCL2, mCCL2-SNBD, and the Pd-SNBD complex. C) Mass spectrometry analysis of unlabeled mCCL2 and mCCL2-SNBD proteins. D) Representative fluorescence confocal microscopy images of RAW264.7 cells after incubation with mCCL2-SNBD for 1 h. Left panel: untreated cells; middle panel: cells treated with mCCL2-SNBD (4 μM); right panel: cells treated with mCCL2-SNBD (4 μM) and the CCR2 antagonist RS102895 (40 μM) (exc/em: 405/515 nm). Insets show the corresponding brightfield images. Scale bars: 25 μm. […]
Next, we acquired fluorescence microscopy images in live RAW264.7 macrophages as a murine macrophage cell line expressing the chemokine receptor CCR2.[64] We incubated the macrophages with mCCL2-SNBD, and fluorescence images were taken after 1 hour without any washing steps. […]
[…] Th e si gn al s w ere recorded as mi l l i degrees at 25 °C , an d th e mean resi du e el l i pti ci ty (MR E ) w as cal cu l ated accordi n g to [θ] […]

[4] = human red blood cells 0.5% (v/v) in PBS pH 7.4, 1 h at 37 °C, haemoglobin absorbance 405 nm, 0.01% Triton X-100 = 100%, Hill fit with maximum constrained to 100%, read-out: hemolytic activity EC50
[5] = red cells of human, 1 h, pH 7.4

Molecule: CC(C)C[C@H](NC(=O)[C@H](Cc1ccc(O)cc1)NC(=O)[C@H](CCCNC(=N)N)NC(=O)[C@H](CO)NC(=O)[C@H](CSc1ccc([N+](=O)[O-])c2nsnc12)NC(=O)[C@H](C)NC(=O)[C@H](Cc1ccc(O)cc1)NC(=O)[C@H](CC(C)C)NC(=O)[C@@H](N)CCCCN)C(N)=O [P1-SNBD] (H-KLYAC(X1)SRYL-NH2)
- chemical stability ([1]; cell culture media at 37 °C): no major degradation
- chemical stability ([1]; different biologically relevant reducing environments): no major degradation
- chemical stability ([1]; phosphate buffered saline (PBS, pH 7.0) at 25 °C): no major degradation
- Peptide stability, percentage relative to peptide without bioanalyte ([2]; 1 mM NADH, 3 h): > 95%
- Peptide stability, percentage relative to peptide without bioanalyte ([2]; 1 mM NADH, 24 h): > 95%
- Peptide stability, percentage relative to peptide without bioanalyte ([2]; 1 mM NADH, 48 h): > 95%
- Peptide stability, percentage relative to peptide without bioanalyte ([2]; 5 mM glutathione, 3 h): > 95%
- Peptide stability, percentage relative to peptide without bioanalyte ([2]; 5 mM glutathione, 24 h): > 95%
- Peptide stability, percentage relative to peptide without bioanalyte ([2]; 5 mM glutathione, 48 h): > 95%

Molecule: N=C(N)NCCC[C@H](NC(=O)CNC(=O)[C@@H](N)Cc1ccc(O)cc1)C(=O)N[C@@H](CCCCN)C(=O)N[C@@H](CCCCN)C(=O)N[C@@H](CCCNC(=N)N)C(=O)N[C@@H](CCCNC(=N)N)C(=O)N[C@@H](CCC(N)=O)C(=O)N[C@@H](CCCNC(=N)N)C(=O)N[C@@H](CCCNC(=N)N)C(=O)N[C@@H](CCCNC(=N)N)C(=O)N1CCC[C@H]1C(=O)N[C@@H](CCC(N)=O)C(N)=O [TAT, reference compound]
- EC50 (Human red blood cells; [4]): 79 ± 6 µM

Molecule: N=C(N)NCCC[C@H](NC(=O)CNC(=O)[C@@H](N)Cc1ccc(O)cc1)C(=O)N[C@@H](CCCCN)C(=O)N[C@@H](CCCCN)C(=O)N[C@@H](CCCNC(=N)N)C(=O)N[C@@H](CCCNC(=N)N)C(=O)N[C@@H](CCC(N)=O)C(=O)N[C@@H](CCCNC(=N)N)C(=O)N[C@@H](CCCNC(=N)N)C(=O)N[C@@H](CCCNC(=N)N)C(=O)N1CCC[C@H]1C(=O)N[C@@H](CCC(N)=O)C(=O)N[C@@H](CSc1ccc([N+](=O)[O-])c2nsnc12)C(N)=O [TAT-SNBD]
- EC50 (Human red blood cells; [4]): 53 ± 2 µM

Molecule: CC[C@H](C)[C@H](NC(=O)[C@H](CCCCN)NC(=O)[C@@H](NC(=O)[C@H](CCC(N)=O)NC(=O)[C@@H](N)CCCNC(=N)N)[C@@H](C)CC)C(=O)N[C@@H](Cc1c[nH]c2ccccc12)C(=O)N[C@@H](Cc1ccccc1)C(=O)N[C@@H](CCC(N)=O)C(=O)N[C@@H](CC(N)=O)C(=O)N[C@@H](CCCNC(=N)N)C(=O)N[C@@H](CCCNC(=N)N)C(=O)N[C@@H](CCSC)C(=O)N[C@@H](CCCCN)C(=O)N[C@@H](Cc1c[nH]c2ccccc12)C(=O)N[C@@H](CCCCN)C(=O)N[C@@H](CCCCN)C(N)=O [penetratin, reference compound]
- EC50 (Human red blood cells; [4]): 34 ± 5 µM

Molecule: CC[C@H](C)[C@H](NC(=O)[C@H](CCCCN)NC(=O)[C@@H](NC(=O)[C@H](CCC(N)=O)NC(=O)[C@@H](N)CCCNC(=N)N)[C@@H](C)CC)C(=O)N[C@@H](Cc1c[nH]c2ccccc12)C(=O)N[C@@H](Cc1ccccc1)C(=O)N[C@@H](CCC(N)=O)C(=O)N[C@@H](CC(N)=O)C(=O)N[C@@H](CCCNC(=N)N)C(=O)N[C@@H](CCCNC(=N)N)C(=O)N[C@@H](CCSC)C(=O)N[C@@H](CCCCN)C(=O)N[C@@H](Cc1c[nH]c2ccccc12)C(=O)N[C@@H](CCCCN)C(=O)N[C@@H](CCCCN)C(=O)N[C@@H](CSc1ccc([N+](=O)[O-])c2nsnc12)C(N)=O [penetratin-SNBD]
- EC50 (Human red blood cells; [5]): 27 ± 3 µM

Molecule: CC[C@H](C)[C@H](NC(=O)[C@H](CCCCN)NC(=O)[C@H](CC(N)=O)NC(=O)[C@H](CCCNC(=N)N)NC(=O)[C@H](Cc1ccccc1)NC(=O)[C@H](CCCCN)NC(=O)[C@H](CCCNC(=N)N)NC(=O)[C@H](CC(C)C)NC(=O)[C@H](CCCNC(=N)N)NC(=O)[C@H](CCCCN)NC(=O)[C@H](CCCNC(=N)N)NC(=O)[C@H](CC(C)C)NC(=O)CN)C(=O)N[C@@H](CCCCN)C(=O)N[C@@H](CCC(=O)O)C(=O)N[C@@H](CCCCN)C(=O)N[C@@H](CSc1ccc([N+](=O)[O-])c2nsnc12)C(N)=O [sC18-SNBD] (H-GLRKRLRKFRNKIKEKC(X1)-NH2)
- EC50 (Human red blood cells; [5]): 43 ± 3 µM

Molecule: GLRKRLRKFRNKIKEK-NH2 [sC18, reference compound]
- EC50 (Human red blood cells; [4]): 70 ± 4 µM

Molecule: mCCL2-SNBD: mCCL2 labeled with SNBD at the C-terminal Cys, 9063.6 Da
- internalization in presence of CCR2 antagonist ([3]; RS102895 40 μM pre-incubated 15 min): substantially reduced intracellular fluorescence emission
- internalization in live macrophages ([3]; no washing steps): bright fluorescence signals distributed across the cytosol
